The values below come from patent US20260001864A1, “COMPOUND CONTAINING SULFAMIDE STRUCTURE, AND PREPARATION METHOD THEREFOR AND APPLICATION THEREOF, AND PHARMACEUTICAL COMPOSITION AND APPLICATION” (Nanjing Shuohui Pharmatechnology Co., Ltd, priority 2021, published 2026).

The test system of series [1] is histamine-induced gastric acid secretion. Kind of series: Inhibition of histamine-induced gastric acid secretion in rats (pylorus ligation). The class given is in vivo, rat. The following applies: SD rats, total acid over 3 h after histamine. The method, then:
70 SPF-level SD rats with a weight of 180-220 g (Hangzhou Medical College (produced)), randomly grouped by weight, including negative control groups (isovolumetric saline) and model control groups (isovolumetric saline), and compounds obtained in the foregoing preparation examples of the present invention (i.e., compounds or compound hydrochlorides) (2 mg/kg or 4 mg/kg), 10 rats each group, including 5 males and 5 females. The rats were fasted, but were allowed to drink water for 24 h. After 24 h, the rats were given the compound at 1 ml/100 g by gavage, once in each group, and the rats in the negative control groups and the model groups were given an equal volume of saline by gavage. After that, the rats were anesthetized with chloral hydrate 300 mg/kg (1 ml/100 g) and fixed on a rat plate, and the abdominal wall was incised along the abdominal midline from the subxiphoid process of the sternum, and the incision was approximately 2-3 cm and was made on the left costal margin, and the stomach was exposed to the incision by gently pushing it with the fingers upwards. The pylorus was ligated with a thread under the pylorus (other neighboring vessels were not ligated), and the abdominal wall incision was sutured. The animals were given histamine dihydrochloride (30 mg/10 ml/kg) subcutaneously after 1 h of gavage of the test compound or saline. After 3 h of histamine administration, the rats were asphyxiated with excess CO2, stomachs were removed, stomach contents were collected and centrifuged at 3000 rpm/min for 10 min, and the acid solution was titrated with 0.1 mol/L NaOH to pH7.0. The total acidity and acid inhibition rate during the 3 h period were calculated.
Acid inhibition rate (%)=(Total acid in the model group−total acid in the test group)/total acid in the model group×100%

Series [2] in a line: Rat tissue distribution test (oral, LC-MS-MS). The class given is in vivo. The following applies: for Exposure level (0-4 h): male SD rats, oral 4 mg/kg; for Kp: male, SD, rat, plasma set to 1, oral 4 mg/kg, read-out: Ratio of exposure level. The method, then: Three healthy male SD rats (body weight range 220-250 g, Zhejiang Charles River) were taken and assigned into one group (n=3). Compound 48, Compound A9 or comparison compound Vonoprazan were administered orally at a dose of 4 mg/kg.
Solvent for preparing pharmaceutical preparations: Pure water. The rats were fasted 4 h prior to the administration. […] The tissue was homogenized, and the corresponding blank tissue was used for preparation of a calibration curve and QC quantification. Blood samples should be centrifuged to extract plasma within 1 hour of collection and kept on crushed ice prior to the centrifugation. Plasma samples obtained by centrifugation were stored in a freezer until analysis. Centrifugation conditions: 4-10° C., 8000 rpm, 6 min. The concentration of the sample was determined by LC-MS-MS (MS03: Shimadzu LC30AD and API 4000)), and the exposure data were calculated by WINNOLIN software.

Series [3] has as its target H+/K+-ATPase (rabbit gastric mucosal microsomes) (Oryctolagus cuniculus (Rabbit), UniProt P27112). Briefly: In vitro screening test of H+/K+-ATPase inhibition (malachite green). The format is biochemical. Particulars: pH 6.5, 37° C. 30 min, read-out: IC50, inhibitory effect on H+/K+-ATPase activity.

Read-outs that look alike come from different tables or passages of the source.

Chain of H+/K+-ATPase (rabbit gastric mucosal microsomes) (P27112 whole entry): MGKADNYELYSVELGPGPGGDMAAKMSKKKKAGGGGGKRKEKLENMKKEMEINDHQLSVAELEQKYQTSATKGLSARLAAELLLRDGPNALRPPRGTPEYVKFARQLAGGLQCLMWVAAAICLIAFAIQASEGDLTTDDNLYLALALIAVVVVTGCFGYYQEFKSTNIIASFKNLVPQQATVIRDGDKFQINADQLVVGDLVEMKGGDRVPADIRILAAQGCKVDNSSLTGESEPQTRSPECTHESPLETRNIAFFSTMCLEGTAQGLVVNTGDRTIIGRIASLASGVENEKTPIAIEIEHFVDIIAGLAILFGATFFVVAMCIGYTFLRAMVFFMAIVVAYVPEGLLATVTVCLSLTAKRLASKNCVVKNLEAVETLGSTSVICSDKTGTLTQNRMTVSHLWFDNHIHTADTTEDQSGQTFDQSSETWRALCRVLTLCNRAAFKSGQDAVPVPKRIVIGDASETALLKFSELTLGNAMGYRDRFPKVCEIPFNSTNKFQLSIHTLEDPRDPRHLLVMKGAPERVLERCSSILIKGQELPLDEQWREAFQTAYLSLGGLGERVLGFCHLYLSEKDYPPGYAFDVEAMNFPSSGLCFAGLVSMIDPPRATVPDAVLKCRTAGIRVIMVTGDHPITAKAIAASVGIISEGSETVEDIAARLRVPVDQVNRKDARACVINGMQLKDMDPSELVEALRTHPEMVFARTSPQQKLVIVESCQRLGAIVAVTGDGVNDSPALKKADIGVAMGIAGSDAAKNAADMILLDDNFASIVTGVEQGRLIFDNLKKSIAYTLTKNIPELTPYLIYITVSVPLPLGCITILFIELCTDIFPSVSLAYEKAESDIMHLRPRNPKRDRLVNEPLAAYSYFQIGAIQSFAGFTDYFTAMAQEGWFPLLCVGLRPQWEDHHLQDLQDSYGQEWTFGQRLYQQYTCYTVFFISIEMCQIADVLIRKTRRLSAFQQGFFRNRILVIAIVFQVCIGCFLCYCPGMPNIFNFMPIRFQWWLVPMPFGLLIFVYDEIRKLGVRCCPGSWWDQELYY
Chain of H+/K+-ATPase (rabbit gastric mucosal microsomes) (P18597 whole entry partner): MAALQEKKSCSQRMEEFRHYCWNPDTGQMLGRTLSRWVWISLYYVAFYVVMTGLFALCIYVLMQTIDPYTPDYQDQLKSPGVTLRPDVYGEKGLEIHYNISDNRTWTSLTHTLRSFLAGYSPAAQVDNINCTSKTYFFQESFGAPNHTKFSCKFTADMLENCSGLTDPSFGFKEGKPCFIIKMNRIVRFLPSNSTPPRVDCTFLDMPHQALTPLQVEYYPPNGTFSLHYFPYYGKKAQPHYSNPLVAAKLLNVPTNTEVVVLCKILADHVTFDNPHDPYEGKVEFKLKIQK

In the case of `CNCc1cn(S(=O)(=O)c2cccnc2)c(-c2ccc(OCC3CC3)cc2F)c1OC` [Compound 48, 1-(5-(4-(cyclopropylmethoxy)-2-fluorophenyl)-4-methoxy-1-(pyridin-3-ylsulfonyl)-1H-pyrrolo-3-yl)-N-methylmethylamine], the Acid inhibition rate in series [1] (2 mg/kg by gavage) came to 75%; in series [1] (4 mg/kg by gavage), 86%. Further, the “Exposure level (0-4 h)” value in series [2] (liver) worked out at 7585.5 ng·h/mL; in series [2] (plasma) it was 85.8 ng·h/mL; in series [2] (stomach), 14693.7 ng·h/mL. The Kp in series [2] (liver) was determined as 88.4; in series [2] (plasma), 1; in series [2] (stomach), 171. Further, the IC50 in series [3] was 36 nM.
